Laboratory results as given in ChEMBL document CHEMBL1147091, “Prevalence of plasmid-mediated quinolone resistance determinants QnrA, QnrB, and QnrS among clinical isolates of Enterobacter cloacae in a Taiwanese hospital” (2007).
In brackets after ≈: the same amount, converted by molar mass. Activity calls are given as the source filed them. The calls are words filed in the database; no cut-off is given here.

Legend:
Escherichia coli [1] = assay: Decrease in susceptibility of qnrS-positive transconjugant streptomycin-resistant Escherichia coli C600; type: functional
Enterobacter cloacae [2] = assay: Susceptibility of qnr positive Enterobacter cloacae assessed as percentage nonsusceptible isolates; type: functional
Escherichia coli [3] = assay: Decrease in susceptibility of qnrB-positive transconjugant streptomycin-resistant Escherichia coli C600; type: functional
Enterobacter cloacae [4] = assay: Susceptibility of qnr positive Enterobacter cloacae; type: functional
Enterobacter cloacae [5] = assay: Susceptibility of metallo beta lactamase and extended spectrum beta lactamase deficient qnr positive Enterobacter cloacae assessed as percentage nonsusceptible isolates; type: functional
Enterobacter cloacae [6] = assay: Susceptibility of qnr positive Enterobacter cloacae producing IMP8 and/or SHV12 assessed as percentage nonsusceptible isolates

Structure (SMILES)	Activity (Enterobacter cloacae [2])	Activity (Escherichia coli [1])	also measured
CCn1cc(C(=O)O)c(=O)c2ccc(C)nc21 [NALIDIXIC ACID]	100%		MIC (Escherichia coli [1]; Escherichia coli, C600): 16 µg/mL (≈ 68.9 µM); MIC (Escherichia coli [3]): 16 µg/mL (≈ 68.9 µM); MIC90 (Enterobacter cloacae [4]): > 256 µg/mL
C[C@@H](O)[C@H]1C(=O)N2C(C(=O)O)=C(SCCNC=N)C[C@H]12 [IMIPENEM ANHYDROUS]	9.3%		
CO/N=C(\C(=O)N[C@@H]1C(=O)N2C(C(=O)O)=C(COC(C)=O)CS[C@H]12)c1csc(N)n1 [CEFOTAXIME]	97.8%		
CC(C)(O/N=C(\C(=O)N[C@@H]1C(=O)N2C(C(=O)[O-])=C(C[n+]3ccccc3)CS[C@H]12)c1csc(N)n1)C(=O)O [CEFTAZIDIME]	86%		Activity (Enterobacter cloacae [5]): 29.4%; Activity (Enterobacter cloacae [6]): 100%
CC(=O)OCC1=C(C(=O)O)N2C(=O)[C@@H](NC(=O)Cc3cccs3)[C@H]2SC1		inactive	
CC1(C)S[C@@H]2[C@H](NC(=O)[C@H](N)c3ccccc3)C(=O)N2[C@H]1C(=O)O		inactive	
NCC[C@H](O)C(=O)N[C@@H]1C[C@H](N)[C@@H](O[C@H]2O[C@H](CN)[C@@H](O)[C@H](O)[C@H]2O)[C@H](O)[C@H]1O[C@H]1O[C@H](CO)[C@@H](O)[C@H](N)[C@H]1O [AMIKACIN]	3.5%		
O=C(O)c1cn(C2CC2)c2cc(N3CCNCC3)c(F)cc2c1=O [CIPROFLOXACIN]		0.25 µg/mL	
